For 9 compounds, Ki results are on record in patent US20240150293A1, “SPIROCYCLOHEXANE DERIVATIVES, PHARMACEUTICAL COMPOSITIONS CONTAINING THEM AND THEIR USES AS ANTI-APOPTOTIC INHIBITORS” (LES LABORATOIRES SERVIER, priority 2021, published 2024).

Chain of Mcl-1 protein (Q07820 whole entry): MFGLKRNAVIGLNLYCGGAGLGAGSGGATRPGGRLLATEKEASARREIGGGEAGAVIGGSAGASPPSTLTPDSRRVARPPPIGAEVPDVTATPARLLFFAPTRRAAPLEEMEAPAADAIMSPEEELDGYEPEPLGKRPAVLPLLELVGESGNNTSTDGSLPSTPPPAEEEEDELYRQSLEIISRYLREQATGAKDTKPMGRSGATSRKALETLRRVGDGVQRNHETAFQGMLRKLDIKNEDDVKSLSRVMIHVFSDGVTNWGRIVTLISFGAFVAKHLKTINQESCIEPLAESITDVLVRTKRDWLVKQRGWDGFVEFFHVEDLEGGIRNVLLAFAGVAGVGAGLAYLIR

This assay addresses Mcl-1 protein (UniProtKB Q07820) (Homo sapiens (Human), UniProt Q07820). The assay is described as follows: Inhibition of Mcl-1 by the fluorescence polarisation assay (Example A, Method A). Format: binding. As to conditions: fluorescence polarization assay. Here is the method: The relative binding potency of each compound was determined via Fluorescence Polarisation (FP). The method utilised a Fluorescein labelled ligand (Fluorescein-βAla-Ahx-A-REIGAQLRRMADDLNAQY-OH; MW 2,765) which binds to the Mcl-1 protein (such that Mcl-1 corresponds to the UniProtKB® primary accession number: Q07820) leading to an increased anisotropy measured in milli-polarisation (mP) units using a reader. The addition of a compound which binds competitively to the same site as the ligand will result in a greater proportion of unbound ligand in the system indicated by a decrease in mP units.
An 11 point serial dilution of each compound was prepared in DMSO and 2 μl transferred into flat bottomed, low binding, 384-well plate (final DMSO concentration 5%). 38 μl of buffer containing the Fluorescein labelled ligand (final concentration 1 nM) and Mcl-1 protein (final concentration 5 nM) was then added. Buffer components were 10 mM 4-(2-hydroxyethyl)-1-piperazineethanesulfonic acid [HEPES], 150 mM NaCl, pH 7.4 with the addition of 0.05% Tween 20.
Assay plates were incubated for 2 hours at room temperature before FP was measured on a […] Synergy Neo reader ([…], Cut off 510 nm) and mP units calculated. The binding of increasing doses of test compound was expressed as a percentage reduction in mP compared to a window established between ‘5% DMSO only’ and ‘100% inhibition’ controls. 11-point dose response curves were plotted with XL-Fit software using a 4-Parameter Logistic Model (Sigmoidal Dose-Response Model) and the inhibitory concentrations that gave a 50% reduction in mP (IC50) were determined. The Ki values were determined from the IC50 values according to Cer et al, Nucleic Acids Res, 2009, 37 (WebServer issue): W441-W445. Inhibition constants (Ki) are determined from complete binding inhibition curves (cKi) or from estimated from incomplete binding inhibition curves (eKi) in most cases due to low activity.
A general note: Fluorescence polarisation rises when a labelled molecule tumbles more slowly, as on binding a larger partner.
As to `O=C(O)[C@]1(Nc2cccc(Cl)c2)CC[C@@]2(CC1)c1ccccc1CC2[C@H]1C[C@@H]1COc1ccnc2ccsc12` (single isomer, unassigned) [Example 104, (1r,4r)-4-(3-chloroanilino)-2′-[(1R*,2S*)-2-{[(thieno[3,2-b]pyridin-7-yl)oxy]methyl}cyclopropyl]-2′,3′-dihydrospiro[cyclohexane-1,1′-indene]-4-carboxylic acid], the Ki – broadly, a dissociation constant, usually derived from enzyme kinetics or from competition with a known ligand – was found to be 1.36 µM.
For the compound `O=C(O)[C@]1(Nc2cccc(Cl)c2)CC[C@@]2(CC1)c1ccccc1CC2[C@H]1C[C@@H]1COc1ccnc2ccsc12` (single isomer, unassigned) [Example 105, (1r,4r)-4-(3-chloroanilino)-2′-[(1R*,2S*)-2-{[(thieno[3,2-b]pyridin-7-yl)oxy]methyl}cyclopropyl]-2′,3′-dihydrospiro[cyclohexane-1,1′-indene]-4-carboxylic acid], the Ki came to 3.7 µM.
As to `O=C(O)[C@]1(Nc2cccc(Cl)c2)CC[C@@]2(CC1)c1ccccc1CC2[C@H]1C[C@@H]1COc1ccnc2ccsc12` (single isomer, unassigned) [Example 106, (1r,4r)-4-(3-chloroanilino)-2′-[(1R*,2S*)-2-{[(thieno[3,2-b]pyridin-7-yl)oxy]methyl}cyclopropyl]-2′,3′-dihydrospiro[cyclohexane-1,1′-indene]-4-carboxylic acid], the Ki was 2.26 µM.
The value for `O=C(O)[C@]1(Nc2cccc(Cl)c2)CC[C@@]2(CC1)c1ccccc1[C@@H]1C[C@@H]12` (single isomer, unassigned) [Example 107, (1r,1′aR*,4r,6′aS*)-4-(3-chloroanilino)-1′a,6′a-dihydro-1′H-spiro[cyclohexane-1,6′-cyclopropa[a]indene]-4-carboxylic acid] was 1.87 µM; that for `O=C(O)[C@]1(Nc2cccc(Cl)c2)CC[C@@]2(CC1)c1ccccc1[C@@H]1C[C@@H]12` (single isomer, unassigned) [Example 108, (1r,1′aR*,4r,6′aS*)-4-(3-chloroanilino)-1′a,6′a-dihydro-1′H-spiro[cyclohexane-1,6′-cyclopropa[a]indene]-4-carboxylic acid] was 5.73 µM; that for `O=C(O)[C@]1(Nc2cccc(Cl)c2)CC[C@@]2(CC1)c1ccccc1CC2[C@H]1C[C@@H]1COc1ccccc1` (single isomer, unassigned) [Example 112, (1r,4r)-4-(3-chloroanilino)-2′-[(1R*,2S*)-2-(phenoxymethyl)cyclopropyl]-2′,3′-dihydrospiro[cyclohexane-1,1′-indene]-4-carboxylic acid] was 1.62 µM.
For `O=C(O)[C@]1(Nc2cccc(Cl)c2)CC[C@@]2(CC1)c1ccccc1CC2[C@H]1C[C@@H]1COc1cccnc1` (single isomer, unassigned) [Example 113, (1r,4r)-4-(3-chloroanilino)-2′-[(1R*,2S*)-2-{[(pyridin-3-yl)oxy]methyl}cyclopropyl]-2′,3′-dihydrospiro[cyclohexane-1,1′-indene]-4-carboxylic acid] the value was 22.3 µM; for `O=C(O)[C@]1(Nc2cccc(Cl)c2)CC[C@@]2(CC1)c1ccccc1CC2[C@H]1C[C@@H]1COc1cccnc1` (single isomer, unassigned) [Example 114, (1r,4r)-4-(3-chloroanilino)-2′-[(1R*,2S*)-2-{[(pyridin-3-yl)oxy]methyl}cyclopropyl]-2′,3′-dihydrospiro[cyclohexane-1,1′-indene]-4-carboxylic acid], 27.3 µM; for `O=C(O)[C@]1(Nc2cccc(Cl)c2)CC[C@@]2(CC1)c1ccccc1CC2[C@H]1C[C@@H]1COc1cccnc1` (single isomer, unassigned) [Example 115, (1r,4r)-4-(3-chloroanilino)-2′-[(1R*,2S*)-2-{[(pyridin-3-yl)oxy]methyl}cyclopropyl]-2′,3′-dihydrospiro[cyclohexane-1,1′-indene]-4-carboxylic acid], 1.14 µM.
